Source: publication PMC11251039, “Harnessing cholesterol uptake of malaria parasites for therapeutic applications” (EMBO Molecular Medicine, 2024)
Values joined by “and” are separate entries in the source; they are usually repeats but may differ in a detail not shown here. Identical values can stand only once. Like-named read-outs stand apart in the source and are kept apart here.

System: asexual P. falciparum 3D7 wild-type parasites
Test: P. falciparum asexual growth inhibition assay (SYBR Safe DNA replication)
Format: cell-based, Plasmodium falciparum
Design: Figure 5B dose-response source data (growth, replicate values): unit not given here
Description: P. falciparum asexual parasite assays commenced with ring-stage parasites at 1% parasitaemia and 1% haematocrit. 200 nM chloroquine (Sigma C6628) or artesunate (Sigma A3731) was used as a no-growth control. DNA replication (indicating growth) was measured at the specified time using SYBR Safe DNA Gel Stain (Invitrogen 33102) and a fluorescence microplate reader (Smilkstein et al, [2004]; Spry et al, [2013]). […]
Growth and Viability Inhibition Assays:
Plasmodium falciparum Growth Inhibition Assays:
P. falciparum parasites were maintained under routine culture conditions in red blood cells and RPMI 1640-Hepes with Glutamax, supplemented with 10 mM D-glucose, 480 μM hypoxanthine, 20 μg/mL gentamicin, 0.375% (w/v) AlbuMAXTM II (Thermo Fisher 11021029), and 2.5% v/v heat-inactivated human serum (17). Cultures were maintained at 37 °C […]
wildtype parasites except for the ring stage survival assay, as specified. Cultures were synchronised with 5% w/v D-sorbitol (18).
Growth inhibition was investigated according to methods described by Smilkstein et al. (19) with modifications by Spry et al. (20). Compounds or solvent controls (DMSO, ethanol, or ethyl acetate) were serially diluted 2-fold across flat-bottom 96-well plates. Culture media without compound was used as a negative control. 200 nM chloroquine (Sigma C6628) or artesunate (Sigma A3731) was used as a positive control to determine background fluorescence. The parasitaemia of a culture containing predominantly ring stage parasites was counted by Giemsa smear. The parasitaemia was adjusted to 1% by addition of fresh uRBCs and added to the plate at a final haematocrit of 1%, with 200 µL per well. The plates were incubated at 37 °C under humid microaerophilic conditions. After 24, 48, or 72 hours, the plates were transferred to a -18 °C freezer to stop the assay and lyse cells. Plates were thawed and lysate was mixed 1:1 with SYBR Safe DNA Gel Stain (Invitrogen 33102) (final concentration 1/10,000) diluted in lysis buffer (20 mM TRIS, 5 mM EDTA, 0.008% w/v Saponin, 0.08% w/v Triton-X 100, pH 7.5). Fluorescence was detected at 490 nm excitation/ 520 nm emission on a FLUOstar Optima fluorescence plate reader (BMG Labtech).

[1] = Plasmodium falciparum, 3D7, 72 h; read-out: IC50, P. falciparum asexual growth inhibition
[2] = Plasmodium falciparum, 3D7; 24 h, starting at ring stages; read-out: IC50, P. falciparum asexual growth inhibition

COc1cc(NC(C)CCCNC(=O)CCC(=O)O[C@H]2CC[C@@]3(C)C(=CC[C@H]4[C@@H]5CC[C@H]([C@H](C)CCCC(C)C)[C@@]5(C)CC[C@@H]43)C2)c2ncccc2c1 (some centres unmarked) [C-3-PQ]
P. falciparum asexual growth, percentage of control (0.390625000 uM, 24 h, replicate values, source data Fig. 2B; listed as BC64C): 131.7% and 66.76% and 95.56% and 108.4% and 112% and 85% and 101.8% and 112.2% and 92.84%
P. falciparum asexual growth, percentage of control (0.781250000 uM, 24 h, replicate values, source data Fig. 2B; listed as BC64C): 150.2% and 111.9% and 88.57% and 84.46% and 114.9% and 73.34% and 95.38% and 91.75% and 80.98%
P. falciparum asexual growth, percentage of control (1.562500000 uM, 24 h, replicate values, source data Fig. 2B; listed as BC64C): 126.1% and 129.8% and 105.9% and 128.7% and 121.9% and 90.74% and 123.6% and 79.12% and 103.6%
P. falciparum asexual growth, percentage of control (3.125000000 uM, 24 h, replicate values, source data Fig. 2B; listed as BC64C): 126.5% and 121.8% and 108.8% and 133% and 55.06% and 86.31% and 120.7% and 105.6% and 95.15%
P. falciparum asexual growth, percentage of control (6.250000000 uM, 24 h, replicate values, source data Fig. 2B; listed as BC64C): 133.8% and 98.67% and 102.2% and 109% and 94.05% and 103.7% and 108.1% and 76.85% and 81.21%
P. falciparum asexual growth, percentage of control (12.500000000 uM, 24 h, replicate values, source data Fig. 2B; listed as BC64C): 157.5% and 116.3% and 102.8% and 135.3% and 108.6% and 85.91% and 111.9% and 81.39% and 66.81%
P. falciparum asexual growth, percentage of control (25.000000000 uM, 24 h, replicate values, source data Fig. 2B; listed as BC64C): 149.9% and 129.1% and 105.1% and 150.2% and 115.2% and 49.33% and 125.1% and 71.79% and 57.24%
P. falciparum asexual growth, percentage of control (50.000000000 uM, 24 h, replicate values, source data Fig. 2B; listed as BC64C): 150.4% and 131.3% and 98.75% and 124.5% and 117.8% and 89.9% and 146.3% and 135.4% and 89.26%
P. falciparum asexual growth, percentage of control (100.000000000 uM, 24 h, replicate values, source data Fig. 2B; listed as BC64C): 78.34% and 90.49% and 98.72% and 114.4% and 78.89% and 75.44% and 171.9% and 124.7% and 104.9%
Inhibition of parasite growth (24 h): no inhibition of parasite growth up to 100 µM
IC50 [1]: > 200000 nM
IC50 [2]: > 200000 nM

CC(C)CCC[C@@H](C)[C@H]1CC[C@H]2[C@@H]3CC=C4C[C@@H](OC(=O)CCC(=O)OC(C)C)CC[C@]4(C)[C@H]3CC[C@]12C [C-3-link]
P. falciparum asexual growth, percentage of control (0.781250000 uM, 24 h, replicate values, source data Fig. 2B; listed as GGA3): 138.2% and 69.67% and 108.2% and 127.5% and 114.2% and 69.05% and 145.4% and 89.72% and 93.86%
P. falciparum asexual growth, percentage of control (1.562500000 uM, 24 h, replicate values, source data Fig. 2B; listed as GGA3): 130.3% and 104.4% and 98.52% and 110.7% and 113.3% and 87.62% and 145.2% and 92.88% and 49.26%
P. falciparum asexual growth, percentage of control (3.125000000 uM, 24 h, replicate values, source data Fig. 2B; listed as GGA3): 128.1% and 110.6% (2×) and 120.7% and 130.3% and 119.8% and 103.2% and 132.9% and 71.34%
P. falciparum asexual growth, percentage of control (6.250000000 uM, 24 h, replicate values, source data Fig. 2B; listed as GGA3): 93.75% and 68.17% and 50.04% and 136.5% and 109.3% and 87.77% and 130% and 101.8% and 92.88%
P. falciparum asexual growth, percentage of control (12.500000000 uM, 24 h, replicate values, source data Fig. 2B; listed as GGA3): 119.7% and 70.39% and 47.65% and 137.3% and 124.9% and 51.68% and 112.4% and 101.8% and 77.92%
P. falciparum asexual growth, percentage of control (25.000000000 uM, 24 h, replicate values, source data Fig. 2B; listed as GGA3): 123.1% and 134.3% and 128.6% and 112.3% and 97.18% and 95.88% and 133.7% and 5.942% and 77.98%
P. falciparum asexual growth, percentage of control (50.000000000 uM, 24 h, replicate values, source data Fig. 2B; listed as GGA3): 105.1% and 133.6% and 70.07% and 116% and 103% and 74.44% and 77.73% and 97.2% and 107.5%
P. falciparum asexual growth, percentage of control (100.000000000 uM, 24 h, replicate values, source data Fig. 2B; listed as GGA3): 147.4% and 120% and 109% and 100.9% and 90.73% and 81.6% and 95.19% and 71.65% and 81.81%
P. falciparum asexual growth, percentage of control (200.000000000 uM, 24 h, replicate values, source data Fig. 2B; listed as GGA3): 125% and 120.9% and 88.35% and 101.9% and 79.2% and 19.96% and 163.3% and 103.1% and 105.4%
Inhibition of parasite growth (24 h): no inhibition of parasite growth up to 200 µM
IC50 [1]: > 200000 nM
IC50 [2]: > 200000 nM

CCN(CC)CCCC(C)Nc1ccnc2cc(Cl)ccc12 (centres unmarked) [Chloroquine, chloroquine, reference compound]
IC50 (Plasmodium falciparum, 3D7, 24 h, read-out: IC50, P. falciparum asexual growth inhibition): 10.9 nM
IC50 (Plasmodium falciparum, 3D7, 48 h, read-out: IC50, P. falciparum asexual growth inhibition): 9.9 nM
IC50 (Plasmodium falciparum, 3D7, 72 h, read-out: IC50, P. falciparum asexual growth inhibition): 9.7 nM

CC(C)CCC[C@@H](C)[C@H]1CC[C@H]2[C@@H]3CC=C4C[C@@H](O)CC[C@]4(C)[C@H]3CC[C@]12C [Cholesterol, cholesterol]
Figure 5B dose-response source data (growth, replicate values) (Concentration 0.1953125 uM; individual replicates): 97.65 and 98.85 and 95.16 and 99.46 and 98.26 and 98.24 and 102.6 and 96.06 and 94.45
Figure 5B dose-response source data (growth, replicate values) (Concentration 0.390625 uM; individual replicates): 95.8 and 101 and 95.94 and 100.9 and 102.2 and 97.7 and 93.65 and 98.46 and 98.54 and 95.82 and 88.53 and 95.33 and 96.33 and 97.81 and 92.68
Figure 5B dose-response source data (growth, replicate values) (Concentration 0.78125 uM; individual replicates): 99.57 and 96.48 and 97.66 and 98.24 and 100.6 and 107.5 (2×) and 107.4 and 98.35 and 96.07 and 96.59 and 98.18 and 96.9 and 98.19 and 100.3 and 96.94 and 95.15 and 100.1 and 95.95 and 95.21 and 98.02 and 100 and 96.51
Figure 5B dose-response source data (growth, replicate values) (Concentration 1.5625 uM; individual replicates): 98.13 and 98.43 and 98.36 and 100.5 and 96.82 and 110.3 and 108.8 and 107.2 and 96.68 and 92.68 and 85.1 and 96.36 and 98.17 and 96.8 and 101.5 and 98.35 and 94.77 and 99.77 and 99.63 and 99.09 and 97.58 and 93.8 and 94.68
Figure 5B dose-response source data (growth, replicate values) (Concentration 3.125 uM; individual replicates): 99.65 and 95.37 and 96.75 and 101.4 and 107.2 and 106.1 and 106.5 and 104.9 and 98.31 and 99.02 and 98.46 and 95.92 and 100.7 and 98.47 and 104.4 and 98.86 and 101.6 and 91.05 and 95.88 and 95.01 and 101.3 and 96.56 and 97.39
Figure 5B dose-response source data (growth, replicate values) (Concentration 200 uM; individual replicates): 102.2 and 101.3 and 99.63
Figure 5B dose-response source data (growth, replicate values) (Concentration 400 uM; individual replicates): 106.3 and 99.95 and 99.03 and 90.17
IC50 [1]: > 400000 nM
